The structures appear in SMILES notation.

The target of this experiment is T1, cathepsin K (Homo sapiens, UniProt P43235).
T1 sequence (P43235 115-329): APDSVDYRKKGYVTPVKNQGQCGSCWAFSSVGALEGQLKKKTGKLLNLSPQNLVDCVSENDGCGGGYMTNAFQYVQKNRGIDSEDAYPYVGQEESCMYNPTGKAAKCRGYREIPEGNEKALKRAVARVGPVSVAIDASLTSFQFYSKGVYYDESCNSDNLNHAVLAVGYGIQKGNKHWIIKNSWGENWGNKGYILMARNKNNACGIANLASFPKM
In words: Measurement of cathepsin K inhibitory activity. In kind it is biochemical. The conditions noted are these: Dixon plot, 37° C., pH 5.5. The method, then: 65 μL of cathepsin K enzyme reaction buffer (50 mmol/L of 2-(N-morpholino)ethanesulfonate, 2 mmol/L of ethylenediaminetetraacetate (EDTA) and 4 mmol/L of dithiothreitol (DTT) were mixed to adjust to pH 5.5), 5 μL of cysteine protease inhibitor solution of several concentrations, 20 μL of synthesized substrate (t-butyloxycarbonyl-L-alanyl-glycyl-L-prolyl-L-arginine-4-methyl-chromanyl-7-amide) solution of several concentrations and 10 μL of cathepsin K enzyme solution were mixed and the increase of fluorescence intensity when reacted at 37° C. was measured (λex (excitation wavelength)=355 nm, λem (fluorescence wavelength)=460 nm). As to the substrate and the compound of the present invention, enzyme reactions were carried out in combination of several appropriate concentrations and Dixon plotting was prepared, to define the absolute value of X-coordinate of the intersection point of the graph as Ki value.
One may read the Ki as the equilibrium dissociation constant of an inhibitor or competing ligand from its target. For the compound `CC(C)(C)CC(NC(=O)C1CCCCC1)C(=O)C(=O)NN1C(=O)CCC1=O` (stereo not drawn) [example 5], the Ki was found to be 4 nM.
As for `CC(C)C[C@H](NC(=O)C1CCCCC1)C(=O)C(=O)NN=C1SCCN1C` [8(1)], the Ki came out at 2.5 nM.
The same measure for `CC(C)(C)CC(NC(=O)C1CCCCCC1)C(=O)C(=O)NN1CCCS1(=O)=O` (stereo not drawn) [2(6)]: 14 nM.

The values are drawn from patent US7655804B2, “Diketohydrazine derivative compounds and drugs containing the compounds as the active ingredient” (Ono Pharmaceutical Co., Ltd., priority 2002, dated 2010).
